Results published in article PMC10539361, “Allosteric modulation of the fish taste receptor type 1 (T1R) family by the extracellular chloride ion” (Scientific Reports, 2023).

Columns and labels:
[1] = target: T1, zfT1R2a/zfT1R3 (Danio rerio, UniProt A0A8M1N8F9+Q2MHK9); assay: Ca2+ mobilization dose-response assay, stable cells expressing zfT1R2a/zfT1R3 with G16gust44
T1 sequence (A0A8M1N8F9 26-825): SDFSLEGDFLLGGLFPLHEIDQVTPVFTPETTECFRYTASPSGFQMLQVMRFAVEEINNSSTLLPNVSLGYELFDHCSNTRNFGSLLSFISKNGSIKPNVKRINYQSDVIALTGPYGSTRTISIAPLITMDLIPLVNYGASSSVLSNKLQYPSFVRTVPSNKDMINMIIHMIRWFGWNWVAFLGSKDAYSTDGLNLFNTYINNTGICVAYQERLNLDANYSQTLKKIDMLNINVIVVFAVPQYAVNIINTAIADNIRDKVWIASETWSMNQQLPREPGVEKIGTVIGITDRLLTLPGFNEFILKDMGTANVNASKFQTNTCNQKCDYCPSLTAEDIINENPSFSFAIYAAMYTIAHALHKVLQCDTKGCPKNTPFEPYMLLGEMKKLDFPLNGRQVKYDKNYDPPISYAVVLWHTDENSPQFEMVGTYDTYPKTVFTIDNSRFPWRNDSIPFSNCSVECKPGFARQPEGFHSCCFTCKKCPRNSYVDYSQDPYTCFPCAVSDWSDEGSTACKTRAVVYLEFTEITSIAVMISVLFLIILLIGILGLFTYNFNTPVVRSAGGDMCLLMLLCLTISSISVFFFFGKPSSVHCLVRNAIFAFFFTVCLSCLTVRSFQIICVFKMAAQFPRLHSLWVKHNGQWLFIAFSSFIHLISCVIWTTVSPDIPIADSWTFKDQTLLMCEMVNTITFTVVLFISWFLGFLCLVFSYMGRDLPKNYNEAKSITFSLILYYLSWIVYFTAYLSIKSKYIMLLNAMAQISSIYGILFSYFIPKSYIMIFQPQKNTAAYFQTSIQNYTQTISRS
T1 sequence (Q2MHK9 25-850): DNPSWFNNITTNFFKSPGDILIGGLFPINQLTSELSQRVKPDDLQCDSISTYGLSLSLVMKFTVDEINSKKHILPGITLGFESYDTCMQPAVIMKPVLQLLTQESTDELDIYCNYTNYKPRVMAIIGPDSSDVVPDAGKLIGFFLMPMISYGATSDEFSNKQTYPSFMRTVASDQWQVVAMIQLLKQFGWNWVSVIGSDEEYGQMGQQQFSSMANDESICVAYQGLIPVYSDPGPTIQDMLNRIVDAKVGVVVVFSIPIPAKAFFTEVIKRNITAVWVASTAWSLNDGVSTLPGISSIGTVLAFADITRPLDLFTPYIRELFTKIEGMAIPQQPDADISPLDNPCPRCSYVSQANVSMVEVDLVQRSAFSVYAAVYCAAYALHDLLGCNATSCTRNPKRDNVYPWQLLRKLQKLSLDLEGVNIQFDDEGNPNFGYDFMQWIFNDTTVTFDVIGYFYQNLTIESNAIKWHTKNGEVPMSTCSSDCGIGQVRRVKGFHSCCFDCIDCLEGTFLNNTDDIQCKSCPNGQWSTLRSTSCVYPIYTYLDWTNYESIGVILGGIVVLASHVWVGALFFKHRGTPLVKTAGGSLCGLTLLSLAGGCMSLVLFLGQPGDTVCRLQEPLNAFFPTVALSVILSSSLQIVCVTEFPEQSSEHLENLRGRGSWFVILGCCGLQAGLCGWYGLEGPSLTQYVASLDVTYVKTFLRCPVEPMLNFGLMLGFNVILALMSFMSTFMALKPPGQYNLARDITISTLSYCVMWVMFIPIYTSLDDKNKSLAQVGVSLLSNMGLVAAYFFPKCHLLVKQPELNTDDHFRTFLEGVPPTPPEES
Procedure: (§1) The buffers with lower Cl^− were prepared by progressively replacing NaCl, KCl, CaCl2 and MgCl2 in the buffer with gluconate equivalents[20]. The pH was adjusted to 7.4 with NaOH. Ligands were diluted with the assay buffers at the desired concentrations.
(§2) Measurements of the responses of the cells by cell-based assay based on the intracellular Ca^2+ mobilization were carried out as described previously with some modifications[20],[34],[46],[47]. […] The cells were seeded in 96-well plates (clear-bottomed CellBIND surface plate, Corning, Glendale, AZ, USA) coated with ε-poly-L-lysine (Cosmo Bio, Tokyo, Japan) at approximately 70,000 cells per well. After 20 h, the medium was removed and replaced with high Cl^− buffer. After 3 h 30 min incubation at 27 °C, cells were loaded with 5 µM calcium-indicator dye Fluo-8 AM (AAT Bioquest, Sunnyvale, CA, USA) diluted in high Cl^− buffer. After incubation for 30 min at 27 °C, the cells were washed with buffers containing appropriate concentrations of Cl^−. The cellular assay was initiated after 3–5 min of resting and was completed within 5 min. The measurements were made using FlexStation 3 (Molecular Devices, Sunnyvale, CA, USA) at 27 °C. Fluorescence changes (i.e., excitation at 485 nm and emission at 525 nm with a cutoff at 515 nm) were monitored at 2 s intervals. A 100-µL aliquot of assay buffer supplemented with 2 × ligands was added at 20 s, and scanning was continued for an additional 40 s. The response of each well was determined as ∆RFU (delta relative fluorescent units), which was calculated as (maximum fluorescent value)—(minimum fluorescent value). […] Such normalized data from more than three independent experiments are reported as the mean ± standard error of the mean (SEM). Dose‒response fitting curves were calculated by Prism 9 (GraphPad Software, San Diego, CA) using nonlinear regression (log(agonist) vs. response—variable slope), based on the integrated data from the several independent experiments.

[2] = target: T2, zfT1R2b/zfT1R3 (Danio rerio, UniProt A0A8M1NDZ5+Q2MHK9); assay: Ca2+ mobilization dose-response assay, stable cells expressing zfT1R2b/zfT1R3 with G16gust44
T2 sequence (A0A8M1NDZ5 18-823): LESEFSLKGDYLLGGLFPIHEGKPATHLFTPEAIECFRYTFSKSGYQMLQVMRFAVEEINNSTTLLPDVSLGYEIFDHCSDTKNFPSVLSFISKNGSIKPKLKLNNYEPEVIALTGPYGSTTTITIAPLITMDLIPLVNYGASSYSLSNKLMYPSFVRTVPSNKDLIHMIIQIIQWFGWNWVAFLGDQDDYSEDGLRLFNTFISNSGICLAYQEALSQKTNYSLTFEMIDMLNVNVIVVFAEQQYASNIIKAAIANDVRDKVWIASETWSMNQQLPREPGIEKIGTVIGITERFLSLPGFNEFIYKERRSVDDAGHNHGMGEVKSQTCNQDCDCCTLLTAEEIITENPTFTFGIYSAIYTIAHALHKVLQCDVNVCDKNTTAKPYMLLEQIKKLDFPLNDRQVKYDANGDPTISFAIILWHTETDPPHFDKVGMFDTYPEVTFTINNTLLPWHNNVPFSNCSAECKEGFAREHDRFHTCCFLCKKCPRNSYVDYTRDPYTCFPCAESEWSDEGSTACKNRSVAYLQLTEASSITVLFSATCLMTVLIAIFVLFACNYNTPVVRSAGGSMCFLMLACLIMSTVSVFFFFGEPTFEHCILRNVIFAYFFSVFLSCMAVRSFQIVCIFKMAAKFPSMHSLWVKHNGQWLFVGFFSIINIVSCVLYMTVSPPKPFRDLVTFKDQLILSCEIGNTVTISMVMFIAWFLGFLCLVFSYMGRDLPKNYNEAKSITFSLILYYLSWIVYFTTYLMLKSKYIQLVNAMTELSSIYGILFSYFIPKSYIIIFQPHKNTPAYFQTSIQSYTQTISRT
T2 sequence (Q2MHK9 25-850): T1 sequence (Q2MHK9 25-850)
Procedure: as §1, §2

[3] = EC50, [Cl-]o=10 mM, unit inferred

Row | Compound | EC50 in 10 mM Cl- buffer relative to high Cl- buffer ([1]; 10 mM vs 141.4 mM Cl- buffer) | EC50 [1, 3] [µM] | EC50 in 10 mM Cl- buffer relative to high Cl- buffer ([2]; 10 mM vs 141.4 mM Cl- buffer) | EC50 [2, 3] [µM] | [Cl-]o at which sensitivity is clearly reduced ([1]; agonist L-Pro, buffers with 10-141.4 mM Cl-) | [Cl-]o range in which a decrease in sensitivity was observed ([2]; agonist L-Ala, buffers with 10-141.4 mM Cl-) [mM]
1 | C[C@H](N)C(=O)O [L-Ala, L-alanine] | not influenced | 132 | approximately half | 1290 |  | 
2 | [Cl-].[Na+] [NaCl] |  |  |  |  | below 80 mM | 40 to 141.4
